Experimental data from patent publication US20230265151A1, “GIP/GLP1 CO-AGONIST COMPOUNDS” (priority 2020, published 2023).
Like-named read-outs stand apart in the source and are kept apart here. *1 amine or outer side, *2 acyl side, *3 side chain or, on linkers, in order; H or OH if unused. Where a SMILES comes first, the peptide text is derived from it. Side-chain parts run from the residue outwards. [ ]: non-standard residue; d: D form. The star is where a group is joined. αMePhe(2-F) = C[C@](N)(Cc1ccccc1F)C(=O)O; γGlu = O=C(O)[C@H](CCC(=O)[*:2])N[*:1]; C14 diacid = O=C(O)CCCCCCCCCCCCC(=O)*; αMeY = C[C@](N)(Cc1ccc(O)cc1)C(=O)O; αMeL = CC(C)C[C@](C)(N)C(=O)O; Orn = NCCC[C@H](N)C(=O)O; AEEA = NCCOCCOCC(=O)O; Aib = CC(C)(N)C(=O)O

Tests used:
Format in all cases: cell-based
hGIPR = target: T1, hGIPR (Homo sapiens, UniProt P48546); assay: Functional cAMP formation (HTRF) in HEK-293 clonal cells expressing hGIPR, 0.1% bovine casein, without or with 1.0% human serum albumin; conditions: for Emax: percent of maximal response to GIP(1-42)NH2; for EC50: cAMP
T1 construct: expressed in transfected cells
T1 sequence (P48546 22-466): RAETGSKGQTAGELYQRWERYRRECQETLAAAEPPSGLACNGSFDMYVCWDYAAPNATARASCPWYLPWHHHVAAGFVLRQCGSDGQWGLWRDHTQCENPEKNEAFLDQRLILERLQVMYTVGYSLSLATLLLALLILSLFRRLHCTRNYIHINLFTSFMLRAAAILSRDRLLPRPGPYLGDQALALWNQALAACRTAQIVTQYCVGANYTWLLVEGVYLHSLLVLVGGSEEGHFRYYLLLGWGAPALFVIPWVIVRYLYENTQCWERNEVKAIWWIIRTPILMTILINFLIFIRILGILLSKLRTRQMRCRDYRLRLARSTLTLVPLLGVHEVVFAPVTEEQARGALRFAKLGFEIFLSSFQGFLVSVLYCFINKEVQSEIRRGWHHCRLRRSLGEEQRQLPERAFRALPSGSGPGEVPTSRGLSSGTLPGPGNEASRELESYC
Method in brief: (§1)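 Cells were stimulated with peptide for 30 min at 37° C, then intracellular cAMP was measured by competitive HTRF (665/620 nm ratio) and converted to nM using a cAMP standard curve. Relative EC50 and Emax came from four-parameter logistic fits of percent maximal response against peptide concentration.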

hGCGR = target: T2, hGCGR (Homo sapiens, UniProt P47871); assay: Functional cAMP formation (HTRF) in HEK-293 clonal cells expressing hGCGR, 0.1% bovine casein, without or with 1.0% human serum albumin; conditions: cAMP, 37° C.
T2 construct: expressed in transfected cells
T2 sequence (P47871 26-477): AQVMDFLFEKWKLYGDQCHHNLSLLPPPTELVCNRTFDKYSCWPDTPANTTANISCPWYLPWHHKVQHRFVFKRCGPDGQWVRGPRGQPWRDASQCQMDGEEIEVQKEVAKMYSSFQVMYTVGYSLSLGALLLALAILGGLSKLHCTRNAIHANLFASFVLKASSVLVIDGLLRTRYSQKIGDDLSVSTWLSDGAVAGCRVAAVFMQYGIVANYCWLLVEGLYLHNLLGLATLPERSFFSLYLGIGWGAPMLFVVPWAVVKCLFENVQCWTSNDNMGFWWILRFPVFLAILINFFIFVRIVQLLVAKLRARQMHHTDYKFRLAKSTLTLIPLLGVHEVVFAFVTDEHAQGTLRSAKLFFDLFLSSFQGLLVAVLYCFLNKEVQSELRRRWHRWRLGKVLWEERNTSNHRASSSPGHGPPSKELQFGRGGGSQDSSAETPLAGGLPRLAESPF
Method in brief: as §1

hGLP-1R = hGLP-1R (Homo sapiens, UniProt P43220); assay: Functional cAMP formation (HTRF) in HEK-293 clonal cells expressing hGLP-1R, 0.1% bovine casein, without or with 1.0% human serum albumin; design: expressed in transfected cells; conditions: for Emax: percent of maximal response to GLP-1(7-36)NH2; for EC50: cAMP, 0.1% bovine casein (no human serum albumin), geometric mean
hGLP-1R, sequence (P43220 24-463): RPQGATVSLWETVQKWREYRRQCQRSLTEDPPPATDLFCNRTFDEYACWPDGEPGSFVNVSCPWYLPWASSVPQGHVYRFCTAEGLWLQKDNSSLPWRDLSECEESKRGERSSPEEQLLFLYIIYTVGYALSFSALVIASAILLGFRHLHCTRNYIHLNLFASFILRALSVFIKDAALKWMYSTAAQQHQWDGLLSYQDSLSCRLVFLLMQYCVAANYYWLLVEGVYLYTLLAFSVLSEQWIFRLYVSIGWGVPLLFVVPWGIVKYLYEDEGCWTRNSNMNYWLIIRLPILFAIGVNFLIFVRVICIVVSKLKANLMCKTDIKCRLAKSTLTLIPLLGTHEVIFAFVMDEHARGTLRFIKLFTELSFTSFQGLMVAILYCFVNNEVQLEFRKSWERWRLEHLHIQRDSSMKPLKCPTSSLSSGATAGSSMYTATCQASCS
Method in brief: as §1

CC[C@H](C)[C@H](NC(=O)[C@H](CC(C)C)NC(=O)[C@](C)(Cc1ccc(O)cc1)NC(=O)[C@@H](CCC(=O)O)NC(=O)[C@@H](NC(=O)[C@H](Cc1ccccc1)NC(=O)[C@H](CCCCNC(=O)COCCOCCNC(=O)COCCOCCNC(=O)CC[C@H](NC(=O)CCCCCCCCCCCCC(=O)O)C(=O)O)NC(=O)C(C)(C)NC(=O)[C@H](CCC(N)=O)NC(=O)[C@H](C)NC(=O)[C@H](CCCCNC(=O)COCCOCCNC(=O)COCCOCCNC(=O)CC[C@H](NC(=O)CCCCCCCCCCCCC(=O)O)C(=O)O)NC(=O)[C@H](CCCN)NC(=O)[C@H](CC(=O)O)NC(=O)[C@H](CC(C)C)NC(=O)[C@](C)(CC(C)C)NC(=O)[C@@H](NC(=O)C(C)(C)NC(=O)[C@@H](NC(=O)[C@H](CC(=O)O)NC(=O)[C@H](CO)NC(=O)[C@@H](NC(=O)[C@](C)(Cc1ccccc1F)NC(=O)[C@@H](NC(=O)CNC(=O)[C@H](CCC(=O)O)NC(=O)C(C)(C)NC(=O)[C@@H](N)Cc1ccc(O)cc1)[C@@H](C)O)[C@@H](C)O)C(C)C)[C@@H](C)CC)[C@@H](C)CC)C(=O)N[C@@H](CCCN)C(=O)NCC(=O)NCC(=O)N1CCC[C@H]1C(=O)N[C@@H](CO)C(=O)N[C@@H](CO)C(=O)NCC(=O)N[C@@H](C)C(=O)N1CCC[C@H]1C(=O)N1CCC[C@H]1C(=O)N1CCC[C@H]1C(=O)N[C@@H](CO)C(N)=O [Example 407] (H-Y[Aib]EGT[αMePhe(2-F)]TSDV[Aib]I[αMeL]LD[Orn]K([AEEA-AEEA-γGlu-C14 diacid])AQ[Aib]K([AEEA-AEEA-γGlu-C14 diacid])FI[dE][αMeY]LI[Orn]GGPSSGAPPPS-NH2)
Emax (hGIPR; HEK293, cAMP, 37° C., 0.1% bovine casein and 1.0% human serum albumin, read-out: hGIPR Emax, % ± SEM): 95.4%
EC50 (hGIPR; 37° C., 0.1% bovine casein (no human serum albumin), geometric mean, read-out: hGIPR EC50, nM (SEM, n)): 0.0114 nM
EC50 (hGIPR; 37° C., 0.1% bovine casein and 1.0% human serum albumin, geometric mean (SEM, n), read-out: hGIPR EC50, nM (SEM, n)): 1.87 nM
EC50 (hGCGR; 0.1% bovine casein (no human serum albumin), geometric mean, read-out: hGCGR EC50, nM (SEM, n)): > 9950 nM
EC50 (hGCGR; 0.1% bovine casein and 1.0% human serum albumin, geometric mean (SEM, n), read-out: hGCGR EC50, nM (SEM, n)): > 9950 nM
Emax (hGLP-1R; HEK293, cAMP, 37° C., 0.1% bovine casein and 1.0% human serum albumin, read-out: hGLP-1R Emax, % ± SEM): 97.2%
Emax (hGLP-1R; HEK293, cAMP, 37° C., 0.1% bovine casein, arithmetic mean, read-out: hGLP-1R Emax, % ± SEM): 100%
EC50 (hGLP-1R; 37° C., read-out: hGLP-1R EC50, nM (SEM, n)): 0.156 nM

CC[C@H](C)[C@H](NC(=O)[C@H](CCCN)NC(=O)[C@H](CC(=O)O)NC(=O)[C@H](CC(C)C)NC(=O)[C@](C)(CC(C)C)NC(=O)[C@@H](NC(=O)C(C)(C)NC(=O)[C@@H](NC(=O)[C@H](CC(=O)O)NC(=O)[C@H](CO)NC(=O)[C@@H](NC(=O)[C@](C)(Cc1ccccc1F)NC(=O)[C@@H](NC(=O)CNC(=O)[C@H](CCC(=O)O)NC(=O)C(C)(C)NC(=O)[C@@H](N)Cc1ccc(O)cc1)[C@@H](C)O)[C@@H](C)O)C(C)C)[C@@H](C)CC)C(=O)N[C@@H](C)C(=O)N[C@@H](CCC(N)=O)C(=O)NC(C)(C)C(=O)N[C@@H](CCCCNC(=O)COCCOCCNC(=O)CC[C@H](NC(=O)CCCCCCCCCOc1ccc(C(=O)O)cc1)C(=O)O)C(=O)N[C@@H](Cc1ccccc1)C(=O)N[C@H](C(=O)N[C@H](CCC(=O)O)C(=O)N[C@@](C)(Cc1ccc(O)cc1)C(=O)N[C@@H](CC(C)C)C(=O)N[C@H](C(=O)N[C@@H](CCCCNC(=O)COCCOCCNC(=O)CC[C@H](NC(=O)CCCCCCCCCOc1ccc(C(=O)O)cc1)C(=O)O)C(=O)NCC(=O)NCC(=O)N1CCC[C@H]1C(=O)N[C@@H](CO)C(=O)N[C@@H](CO)C(=O)NCC(=O)N[C@@H](C)C(=O)N1CCC[C@H]1C(=O)N1CCC[C@H]1C(=O)N1CCC[C@H]1C(=O)N[C@@H](CO)C(N)=O)[C@@H](C)CC)[C@@H](C)CC [Example 382]
Emax (hGIPR; HEK293, read-out: hGIPR Emax, % ± SEM, cAMP, 37° C., 0.1% bovine casein and 1.0% human serum albumin): 87.2%
Emax (hGIPR; HEK293, read-out: hGIPR Emax, % ± SEM, cAMP, 37° C., 0.1% bovine casein, arithmetic mean): 97.6%
EC50 (hGIPR; hGIPR EC50, nM (SEM, n), 37° C., 0.1% bovine casein (no human serum albumin), geometric mean): 0.0302 nM
EC50 (hGCGR; hGCGR EC50, nM (SEM, n), 0.1% bovine casein (no human serum albumin), geometric mean): > 9950 nM
EC50 (hGCGR; hGCGR EC50, nM (SEM, n), 0.1% bovine casein and 1.0% human serum albumin, geometric mean (SEM, n)): > 9950 nM
Emax (hGLP-1R; HEK293, read-out: hGLP-1R Emax, % ± SEM, cAMP, 37° C., 0.1% bovine casein and 1.0% human serum albumin): 118%
EC50 (hGLP-1R; hGLP-1R EC50, nM (SEM, n), 37° C.): 0.619 nM
